According to patent publication US20230000835A1, “LYSINE-SPECIFIC HISTONE DEMETHYLASE INHIBITORS FOR THE TREATMENT OF MYELOPROLIFERATIVE NEOPLASMS” (Imago Biosciences, Inc., priority 2019, published 2023):
Structures can show the parent of a compound that is named as a salt.

Experiments:
[1] = tested on: patients with high-risk MF; assay: Phase 1/2a clinical study in myelofibrosis: MPN-SAF / MPN-10 symptom score; assay type: in vivo, human
From the text: In certain embodiments, said patient-reported survey is the Myeloproliferative Neoplasm Symptom Assessment Form (MPN-SAF). The MPN-SAF is a validated clinical assessment form for the most common symptoms of myeloproliferative neoplasms, in which patients self-reports their score, on a scale of 1-10, of various common symptoms, where 1 is the most favorable or the symptom is absent, and 10 is the least favorable or the symptom is the worst imaginable. See, e.g., Scherber R et al., The Myeloproliferative Neoplasm Symptom Assessment Form (MPN-SAF): International Prospective Validation and Reliability Trial in 402 patients,” Blood 118(2):401-08 (2014). Either the full or abbreviated forms may be administered to the patient. In the abbreviated version, a “total symptom score” (TSS) may be calculated from the ten most clinically relevant symptoms from the 17-item MPN-SAF: worst fatigue, concentration, early satiety, inactivity, night sweats, itching, bone pain, abdominal discomfort, weight loss, and fever. The MPN-SAF TSS thus has a possible range of 0 to 100. Quality of life scores are defined as “clinically deficient” when they rate as at least 4 of 10; “moderate” if symptoms are rated as ≥4 of 10 or ≤6 of 10; and “severe” if symptoms are rated as ≥7 of 10. For patients who complete at least six of these 10 items on the BFI and MPN-SAF, the MPN TSS is computed as the average of the observed items multiplied by 10 to achieve a 0-to-100 scale. See, e.g., Emanuel R M et al., “Myeloproliferative neoplasm (MPN) symptom assessment form total symptom score: prospective international assessment of an abbreviated symptom burden scoring system among patients with MPNs,” J Clin Oncol 30(33):4098-103 (2012). […]
The Phase 1/2A portion of the study assessed: the safety of the original starting dose, 0.25 mg/kg/d; an 85-day duration of treatment with a subsequent washout period of up to 28 days; and, pharmacokinetic and drug concentration measurements. […]

platelet count = assay: Clinical study: platelet count titration and peripheral blood counts; assay type: in vivo, human
From the text: Dosing was tailored using platelet count as a biomarker for the effect of bomedemstat activity on megakaryocyte function and activity. The megakaryocytes, the cell in bone marrow and elsewhere that make platelets, are central to the pathogenesis of myelofibrosis and essential thrombocythemia. In both conditions, somatic mutations in bone marrow stem cells result in mature megakaryocytes that produce excess platelets and biologically active proteins that alter the bone marrow niche as well as spill into the circulation resulting in symptoms characteristic of these conditions such as itching and fatigue.
Dosing of such a treatment can be made more precise by titrating the dose to lower the platelet count to a specific range.
In the Phase 1/2a portion of the study, patients started at the presumed sub-therapeutic dose of 0.25 mg/kg/d. Dose-adjustments were made weekly (the lifespan of a human platelet) with dose-titration, either upward or downward, contingent on platelet values at the time of evaluation. Upward titrations were made in increments of 0.125 or 0.0625 mg/kg/d as shown below. Downward titrations were made in decrements of 50% of the current dose. […] The titration target platelet count expected to be associated with most efficacious therapeutic effect was ≥50,000 to <100,000 μL (50-100×10^9/L). The Phase 1/2a titration and re-challenge rules based on weekly evaluation of platelet counts are noted below in Table 1.
A dose-response curve was subsequently generated that provided a titration algorithm to adjust dose to achieve a target platelet count of between 50,000-75,000 platelets per microliter (k/uL), devised with a view to minimizing the probability of severe thrombocytopenia. Excluding both the highest and lowest doses (total daily doses of 4 mg and 100 mg), the mean total daily dose of Compound 1 needed to achieve a platelet count in the target range was 78.3 mg (S.D. 13.8, range 53-90 mg) or the equivalent of approximately 0.7 to 1.2 mg/kg/d. Accordingly, to enable patients to reach more quickly the optimal dose while still maintaining an adequate safety margin, a new Compound 1 starting dose of 0.5 mg/kg QD was selected for all patients entering the Phase 2B portion of the study. The titration and re-challenge rules were also modified in association with this new target (Table 2).
Subsequent to amending the dosing algorithm, a re-analysis of dosing, response and safety was conducted based on the experience with the first sixteen patients. The mean dose needed to achieve and safely maintain a patient in the range of the target platelet count (the “therapeutic dose”) was 63.8 mg/d or 0.85 mg/kg/d (assuming an average weight of 75 kg). […] In a Phase 3 study, the starting dose is anticipated to be 40 mg with one or two additional dose adjustments made in the subsequent 4-6 weeks.

CN1CCN(C(=O)[C@H](CCCN[C@@H]2C[C@H]2c2ccc(F)cc2)NC(=O)c2ccc(-n3ccnn3)cc2)CC1 [Compound 1, N-[(2S)-5-{[(1R, 2S)-2-(4-fluorophenyl)cyclopropyl]amino}-1-(4-methylpiperazin-1-yl)-1-oxopentan-2-yl]-4-(1H-1,2,3-triazol-1-yl)benzamide, bis-tosylate salt]
effect on myelofibrosis symptoms ([1]; evaluable patients N=14, 85-day cycle): profound effect on myelofibrosis symptoms | number of patients with improved scores of fatigue ([1]; of the first 16 patients, within 14 days): 8 | patients with a decrease in symptom score (MPN-10) ([1]; week 24, Phase 1/2a): 89% | effect on platelet counts (platelet count; on treatment): reduced platelet counts in all patients | lymphocytes counts (platelet count; on treatment): unchanged | monocyte counts (platelet count; on treatment): generally modestly elevated | peripheral granulocyte counts (platelet count; on treatment): lower on treatment | platelet counts after cessation of treatment (platelet count; washout): rebounded robustly
